According to PMC8954733, “Microbial Transformation and Biological Activities of the Prenylated Aromatic Compounds from Broussonetia kazinoki” (Molecules, 2022):
Like-named read-outs stand apart in the source and are kept apart here.

Assays:
mushroom tyrosinase = test: Mushroom tyrosinase inhibition (L-tyrosine substrate, dopachrome absorbance at 490 nm); format: biochemical; settings: L-tyrosine as substrate, 30 min at 37 °C, mean ± SD, read-out: Anti-Tyrosinase IC50
Experimental: All the compounds were investigated for their tyrosinase inhibitory effects using L-tyrosine as the substrate. […] All the compounds were first dissolved in dimethyl sulfoxide (DMSO) and then diluted into different concentrations (1, 2, 4, 10, 40, 80, and 160 µM). An amount of 100 µL of each sample solution and 50 µL of the 2 mM L-tyrosine solution in 0.1 M phosphate buffer (pH 6.5) were added to 96-well microplates. After incubation at room temperature for 5 min, 50 µL of mushroom tyrosinase (300 U/mL in phosphate buffer) was added to each well. After further incubation for 30 min under 37 °C, the absorbance of dopachrome produced in the mixture was determined at 490 nm with a microplate reader (SpectraMax 190; Molecular Devices, Sunnyvale, CA, USA). The percent of inhibition of tyrosinase activity was calculated using the formula: % inhibition = (A − B)/A × 100, in which A is the absorbance at 490 nm without the test sample, and B is the absorbance at 490 nm with the test sample. IC50 values were calculated from the mean values of data from four determinations.

[1] = test system: A375P (human melanoma) cell line; test: MTT cytotoxicity assay, A375P; format: cell-based; settings: 24 h treatment, mean ± SD, read-out: Cytotoxic effect IC50, cell line A375P
Experimental: (§1) To evaluate the anticancer potential of compounds 1–11, an MTT assay was used to determine the cell viability of human melanoma (A375P) and murine melanoma (B16F10 and B16F1) cell lines following a 24 h treatment with compounds 1–11.
(§2) The cytotoxic activities of all the compounds (1–11) were evaluated using the MTT assay. Briefly, the A375P (human melanoma), B16F10 and B16F1 (mouse melanoma) cell lines obtained from the Korean Cell Line Bank (Seoul, Korea) were cultured in Dulbecco’s Modified Eagle’s Medium (DMEM) (Gibco, CA, USA) containing penicillin (100 units/mL)-streptomycin (100 µg/mL) (Gibco, CA, USA) and 5% heat-inactivated fetal bovine serum (FBS) (Welgene, Korea) in a humidified chamber with 5% CO2 at 37 °C. The cells were seeded in 96-well plates at a density of 6 × 10^3 cells/well and incubated for 24 h. The medium was then aspirated and replaced with 100 μL of fresh medium containing various concentrations of the test compound. After incubation for a further 24 h, the compound containing the medium was replaced with 100 μL of a MTT solution (0.5 mg/mL) and incubated for 4 h. Then the insoluble formazan crystals were dissolved in 100 µL of DMSO and measured at 490 nm on a microplate reader.

[2] = test system: B16F10 (mouse melanoma) cell line; test: MTT cytotoxicity assay, B16F10; format: cell-based; settings: 24 h treatment, mean ± SD, read-out: Cytotoxic effect IC50, cell line B16F10
Experimental: as §1, §2

[3] = test system: B16F1 (mouse melanoma) cell line; test: MTT cytotoxicity assay, B16F1; format: cell-based; settings: 24 h treatment, mean ± SD, read-out: Cytotoxic effect IC50, cell line B16F1
Experimental: as §1, §2

| SMILES | IC50 (mushroom tyrosinase) [µM] | IC50 ([1]; Homo sapiens, A375P, 24 h) [µM] | IC50 ([2]; Mus musculus, B16-F10, 24 h) [µM] | IC50 ([3]; Mus musculus, B16-F1, 24 h) [µM] | IC50 [1] [µM] | IC50 [2] [µM] | IC50 [3] [µM] |
| --- | --- | --- | --- | --- | --- | --- | --- |
| C=CC(C)(C)c1cc(CCCc2cc(O)c(O)c(CC=C(C)C)c2CC=C(C)C)c(O)cc1O [Compound 1, Kazinol C] | > 80 | 12.1 ± 0.24 | 26 ± 0.33 | 17.6 ± 0.33 | – | – | – |
| C=CC(C)(C)c1cc2c(cc1O)O[C@H](c1cc(O)c(O)c(CC=C(C)C)c1CC=C(C)C)CC2 [Compound 2, Kazinol E] | > 80 | 11.5 ± 0.24 | 12.1 ± 0.87 | 13.3 ± 0.22 | – | – | – |
| CC(C)=CCc1c([C@H]2Oc3cc(O)cc(O)c3C(=O)[C@@H]2O)cc(O)c(O)c1CC=C(C)C [Compound 4, (2R,3R)-3,5,7,3′,4′-pentahydroxy-5′,6′-diprenylflavanonol] | 24.1 ± 0.3 | 13.8 ± 1 | 27.8 ± 0.63 | 24.4 ± 1.82 | – | – | – |
| O=c1[nH]cc(F)c(=O)[nH]1 [Compound 5-FU, 5-FU, reference compound] | – | – | – | – | 13.1 ± 1.55 | 4.61 ± 0.16 | 12.8 ± 0.16 |
| C=CC(C)(C)c1cc(CCCc2cc(O[C@@H]3O[C@H](CO)[C@@H](O)[C@H](O)[C@H]3O)c(O[C@@H]3O[C@H](CO)[C@@H](O)[C@H](O)[C@H]3O)c(CC=C(C)C)c2CC=C(C)C)c(O)cc1O [Compound 9, kazinol C-3″,4″-di-O-β-D-glucopyranoside] | > 80 | > 80 | > 80 | > 80 | – | – | – |
| CC(C)=CCc1c(CCCc2ccc(O)cc2O)cc(O)c(O[C@@H]2O[C@H](CO)[C@@H](O)[C@H](O)[C@H]2O)c1CC=C(C)C [Compound 11, Kazinol F-4″-O-β-D-glucopyranoside] | 0.71 ± 0.01 | > 80 | > 80 | > 80 | – | – | – |

More lines, main results first:

| IC50 (mushroom tyrosinase) [µM] | SMILES | IC50 ([1]; Homo sapiens, A375P, 24 h) [µM] | IC50 ([2]; Mus musculus, B16-F10, 24 h) [µM] | IC50 ([3]; Mus musculus, B16-F1, 24 h) [µM] | IC50 [1] [µM] | IC50 [2] [µM] | IC50 [3] [µM] |
| --- | --- | --- | --- | --- | --- | --- | --- |
| 2.12 ± 0.21 | CC(C)=CCc1c(CCCc2ccc(O)cc2O)cc(O)c(O)c1CC=C(C)C [Compound 3, Kazinol F] | 18.16 ± 0.09 | 19.9 ± 0.73 | 13.8 ± 0.88 | – | – | – |
| > 80 | C=CC(C)(C)c1cc(CCCc2cc(O)c3c(c2CC=C(C)C)C[C@H](C(C)(C)OC)O3)c(O)cc1O [Compound 5, 5′-(2-methylbut-3-en-2-yl)-6″-(3-methylbut-2-enyl)-4″,5″-[(R)-2-(1-methoxy-1-methylethyl)]-dihydrofuranyl-2′,4′,3″-trihydroxydiphenylpropane] | 45.9 ± 0.65 | 43.2 ± 0.71 | 17.3 ± 0.22 | – | – | – |
| > 80 | C=CC(C)(C)c1cc(CCCc2cc(O[C@@H]3O[C@H](CO)[C@@H](O)[C@H](O)[C@H]3O)c(O)c(CC=C(C)C)c2CC=C(C)C)c(O)cc1O [Compound 6, Kazinol C-3″-O-β-D-glucopyranoside] | > 80 | > 80 | > 80 | – | – | – |
| > 80 | C=CC(C)(C)c1cc(CCCc2cc(O[C@@H]3O[C@H](CO)[C@@H](O)[C@H](O)[C@H]3O)c(O)c(CC=C(C)C)c2CC=C(C)C)c(O[C@@H]2O[C@H](CO)[C@@H](O)[C@H](O)[C@H]2O)cc1O [Compound 7, kazinol C-2′,3″-di-O-β-D-glucopyranoside] | 17.8 to 24.2 | 17.8 to 24.2 | 17.8 to 24.2 | 23.6 ± 0.52 | 24.2 ± 1.26 | 17.8 ± 1.65 |
| > 80 | C=CC(C)(C)c1cc(CCCc2cc(O)c(O[C@@H]3O[C@H](CO)[C@@H](O)[C@H](O)[C@H]3O)c(CC=C(C)C)c2CC=C(C)C)c(O)cc1O [Compound 8, Kazinol C-4″-O-β-D-glucopyranoside] | > 80 | > 80 | > 80 | – | – | – |
